Experimental data: patent US10294202B2, “Pyrrolidinones as herbicides” (FMC Corporation, priority 2013, dated 2019)

Tests used:
Assay in all cases: Test E preemergence herbicide test
Design in all cases: key: 0 = no effect, 100 = complete control
[1] = tested on: corn; type: in vivo, Zea mays
Summary of the method: (§1)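 Planted in silt loam; preemergence spray, non-phytotoxic solvent/surfactant formulation; greenhouse 21 d; visual score 0–100 vs controls.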

[2] = tested on: crabgrass, Brazil; type: in vivo, Digitaria horizontalis
Summary of the method: as §1

[3] = tested on: ragweed; type: in vivo, Ambrosia elatior
Summary of the method: as §1

[4] = tested on: nightshade; type: in vivo, Solanum ptycanthum
Summary of the method: as §1

[5] = tested on: beggarticks; type: in vivo, Bidens pilosa
Summary of the method: as §1

SMILES: O=C1NCC(c2ccc(F)cc2)C1C(=O)Nc1ccccc1F (racemic) [Compound 16]
- Plant response rating, Corn ([1]; 16 g ai/ha): 0
- Plant response rating, Corn ([1]; 31 g ai/ha): 0
- Plant response rating, Corn ([1]; 62 g ai/ha): 0
- Plant response rating, Corn ([1]; 125 g ai/ha): 0
- Plant response rating, Corn ([1]; 250 g ai/ha): 0
- Plant response rating, Crabgrass, Brazil ([2]; 16 g ai/ha): 25
- Plant response rating, Crabgrass, Brazil ([2]; 31 g ai/ha): 25
- Plant response rating, Crabgrass, Brazil ([2]; 62 g ai/ha): 65
- Plant response rating, Crabgrass, Brazil ([2]; 125 g ai/ha): 80
- Plant response rating, Crabgrass, Brazil ([2]; 250 g ai/ha): 98
- Plant response rating, Ragweed ([3]; 62 g ai/ha): 0
- Plant response rating, Ragweed ([3]; 125 g ai/ha): 0
- Plant response rating, Ragweed ([3]; 250 g ai/ha): 0
- Plant response rating, Nightshade ([4]; 16 g ai/ha): 0
- Plant response rating, Nightshade ([4]; 31 g ai/ha): 0
- Plant response rating, Nightshade ([4]; 62 g ai/ha): 0
- Plant response rating, Nightshade ([4]; 125 g ai/ha): 0
- Plant response rating, Nightshade ([4]; 250 g ai/ha): 0
- Plant response rating, Beggarticks ([5]; 16 g ai/ha): 0
- Plant response rating, Beggarticks ([5]; 125 g ai/ha): 0
- Plant response rating, Beggarticks ([5]; 250 g ai/ha): 0
